# Results reported in patent US20130040979A1, “CCR1 INHIBITORS USEFUL FOR THE TREAMENT OF MULTIPLE MYELOMA AND OTHER DISORDERS” (Millennium Pharmaceuticals, Inc., priority 2007, published 2013).
# Columns and labels:
# Type in all cases: cell-based, human
# [1] = tested on: osteoclasts generated from peripheral blood mononuclear cells (PBMCs); assay: Osteoclast formation and TRAP assay
# Procedure: Osteoclast formation. Osteoclasts were generated from peripheral blood mononuclear cells (PBMCs) from healthy volunteers by Ficoll-Paque gradient separation and cultured in 6-well or 96-well plates (0.5×10^6 cells/cm^2). After 2 hours, nonadherent PBMCs were removed, and adherent cells were cultured for 21 days in α-MEM containing 10% FBS and 1% penicillin-streptomycin (Mediatech, Herndon, Va.), as well as 50 ng/mL of macrophage colony-stimulating factor (M-CSF; R&D Systems, Minneapolis, Minn.) and RANKL (PeproTech, Rocky Hill, N.J.).
# After 3 weeks, cells were fixed with citrate-acetone solution and stained for tartrate-resistant acid phosphatase (TRAP) using an acid phosphatase leukocyte staining kit (Sigma Chemical) according to the manufacturer's instructions. TRAP^+ OCs containing 3 or more nuclei per cell were enumerated. Each OC formation assay was performed at least 3 times using PBMCs from different donors.
# [2] = tested on: osteoclast activity (bone resorption); assay: Pit formation assay (osteoclast bone resorption on dentin slices); details: 10 nM, 3 weeks
# Procedure: Osteoclast activity was assayed by bone resorption enumerating resorption pits. PBMCs were cultured (0.5×10^6 cells/well) on dentin slices (Immunodiagnostic Systems, Boldon, United Kingdom) in 96-well plates as per the manufacturer's guidelines, and then stimulated with RANKL and M-CSF (50 ng/mL); Compound 51 was added as indicated in FIG. 2. After 3 weeks, adherent cells were scraped off gently with 0.1% Triton. Bone slices were washed in distilled water and stained with 1% toluidine solution. Resorption pits were then quantified by light microscopy using the public domain National Institutes of Health (NIH) Image J software version 1.36b. Each pit area assay was performed at least 3 times with PBMCs from different donors.
# [3] = tested on: multiple myeloma cell adhesion to osteoclasts; assay: Adhesion assay: multiple myeloma cells to osteoclasts; details: 6 hours incubation; independent of CCR1 expression on MM cells
# Procedure: (§1) Cell lines: The dexamethasone (Dex)-sensitive (MM.1S) human MM cell line was provided by Dr Steven Rosen (Northwestern University, Chicago, Ill.). The INA6 human IL-6-dependent MM cell line was provided by Dr Renate Burger (University of Kiel, Kiel, Germany) (see Burger et al., J. Hematol. 2:42-53 (2001)) and cultured in the presence of 2.5 ng/mL IL-6 (R&D Systems, Minneapolis, Minn.). The OPM1 myeloma cell line was provided by Dr Lief Bergsagel (Mayo Clinic, Scottsdale, Ariz.), and the U266 cell line was obtained from the American Type Culture Collection (Rockville, Md.). All MM cell lines were cultured in RPMI 1640 media (Sigma Chemical) containing 10% fetal bovine serum (FBS), 2 mM L-glutamine, 100 U/mL penicillin, and 100 μg/mL streptomycin (Gibco, Grand Island, N.Y.).
# (§2) Multiple myeloma cell lines were labeled with calcein AM (Invitrogen) according to the manufacturer's instructions and plated in a 96-well plates with OCs, fibronectin (FBN; 20 μg/mL), or media, with or without Compound 51. After 6 hours of incubation, plates were washed and fluorescence of the adherent cells was measured using the Multimode Reader Mithras LB 940 (Berthold Technologies, Wildbad, Germany). […] As also shown in FIG. 3, there were no effects on MM cell adhesion to fibronection (FBN).
# [4] = tested on: MM cell adhesion to fibronectin (FBN); assay: Adhesion assay: multiple myeloma cells to fibronectin; details: 6 hours incubation, FBN 20 μg/mL
# Procedure: as §1, §2
# [5] = tested on: multiple myeloma cells co-cultured with osteoclasts; assay: Long-term co-culture of osteoclasts and multiple myeloma cells
# Text: MM primary cells: Patient tumor cells were isolated as described in Kiziltepe et al., Blood 110:709-718 (2007). Following appropriate informed consent, obtained in accordance with the Declaration of Helsinki and with approval by the Institutional Review Board of the Dana-Farber Cancer Institute (Boston, Mass.), MM patient cells were separated from bone marrow (BM) samples by antibody-mediated positive selection using anti-CD138 magnetic activated cell separation microbeads (Miltenyi Biotech, Gladbach, Germany).
# (§3) Co-culture experiments: Osteoclasts were harvested with cell dissociation buffer (Invitrogen, Carlsbad, Calif.) and seeded in 96-well or 24-well plates (approximately 1.5−3×10^4 cells/cm^2). After washing, multiple myeloma cells were added to the wells and incubated with media or with Compound 51 (10 nM) for the specified times at 37° C. For multiple myeloma cell proliferation, DNA synthesis was measured by tritiated thymidine uptake (3H-TdR; Perkin Elmer, Boston, Mass.), pulsing multiple myeloma cells with 3H-TdR (0.5 μCi/well [0.0185 MBq]L) during the last 8 hours of 48-hour cultures. At the end of the culture, cells were harvested onto paper filters with an automatic cell harvester (Cambridge Technology, Cambridge, Mass.) and counted using the LKB Betaplate scintillation counter (Wallac, Gaithersburg, Md.). To assess cell survival, viable multiple myeloma cells were counted by trypan blue staining.
# Osteoclasts were plated in a 24-well plate (3×10^4 cells/well) with either INA6 mutliple myeloma cells (5×10^3 cells/well) or primary patient multiple myeloma cells (3×10^5 cells/well) for 5 days using the general method described above.
# INA6 cells = assay: Short-term co-culture of osteoclasts and multiple myeloma cells (thymidine uptake); details: 48 hours
# Procedure: as §3
# Osteoclasts were seeded in a 96-well plate at a density of 10^4 cells/well and cocultured with INA6 cells (3×10^4 cells/well) for 48 hours.
compound,measurement,setting,value
"CC(C)(O)c1ccc2c(c1)C(=CCCN1CC[C@](O)(c3ccc(Cl)cc3)C(C)(C)C1)c1cccnc1CO2 [Compound 51, (4S)-4-(4-chlorophenyl)-1-{3-[7-(1-hydroxy-1-methylethyl)[1]benzoxepino[3,4-b]pyridin-5(11H)-ylidene]propyl}-3,3-dimethylpiperidin-4-ol]",reduction of osteoclast number compared to control,"[1]; 10 nM, 3 weeks, TRAP+ OCs with 3 or more nuclei, p<0.05",40-60%
same,dose dependence of decrease in osteoclast number,[1]; doses up to 100 nM,No dose-dependent effect
same,resorptive tracks and pit numbers,[2]; dentin slices,almost complete abrogation
same,"bone resorption area, mean±SD, of total area per slice","[2]; control 8.7%±1.9%, P<0.01",2.4%±1.2
same,multiple myeloma cell adhesion to osteoclasts,[3],almost complety inhibited
same,MM cell adhesion to fibronectin (FBN),[4],no effects
same,survival advantage conferred by osteoclasts,"[5]; INA6 cells, 5 days co-culture, 10 nM",almost completely abrogated
same,survival advantage conferred by osteoclasts,[5]; MM1.S cells (data not shown),same effect was also noted
same,survival advantage conferred by osteoclasts,"[5]; primary MM cells, 5 days co-culture, 10 nM",almost completely abrogated
same,antiproliferative effect on MM cells alone,INA6 cells; no osteoclasts,only modest antiproliferative effects
same,reduction of MM cell proliferative response induced by OCs,"INA6 cells; INA6 cells co-cultured with osteoclasts, P<0.05",50%
